Where two headings read alike, the source gives them in different places.
What was measured:
[1] = system: HCT 116 colon carcinoma; assay: Growth inhibitory assay (MTT, 72 hour exposure), HCT 116; format: cell-based; settings: Homo sapiens, HCT 116, MTT
Method: (§1) Compounds were prepared as 10 mM top stocks, dissolved in DMSO, and stored at 4° C., protected from light, for a maximum period of 4 weeks. Human derived cell lines (HCT 116, HT29 colon carcinoma) were routinely cultivated at 37° C. in an atmosphere of 5% CO2 in RPMI 1640 medium supplemented with 2 mM L-glutamine and 10% fetal calf serum and subcultured twice weekly to maintain continuous logarithmic growth. Cells were seeded into 96-well microtiter plates at a density of 5×10^3 per well and allowed 24 hours to adhere before drugs were introduced (final concentration 0.1 nM-100 μM, n=8). Serial drug dilutions were prepared in medium immediately prior to each assay. At the time of drug addition and following 72 hour exposure, MTT was added to each well (final concentration 400 µg/mL). Incubation at 37° C. for 4 hr allowed reduction of MTT by mitochondrial dehydrogenase to an insoluble formazan product. Well contents were aspirated and formazan solubilized by addition of DMSO:glycine buffer (pH 10.5) (4:1). Absorbance was measured using an Anthos Labtec systems plate reader at 550 nm, and used as a measure of cell viability; thus cell growth or drug toxicity was determined.

[2] = system: HCT-116 (colon); assay: NCI in vitro 60 cell panel, HCT-116; format: cell-based; settings: Homo sapiens, read-out: Most Senstive Cells Lines mean log10 LC50 (converted)
Method: (§2) Compounds were tested for in vitro activity (48 hour drug exposure) across 60 human cancer cell lines through the National Cancer Institute (NCl) Developmental Therapies Screening Program (Boyd et al., 1995).

[3] = system: CAKI-1 (renal); assay: NCI in vitro 60 cell panel, CAKI-1; format: cell-based; settings: Homo sapiens, read-out: Most Senstive Cells Lines mean log10 LC50 (converted)
Method: as §2

[4] = system: 60 human cancer cell lines; assay: NCI in vitro 60 cell panel (48 hour drug exposure); format: cell-based; settings: for LC50: read-out: Mean log10 LC50 (converted)
Method: as §2

[5] = Maximum tolerated dose in mice; settings: mouse, in vivo, daily (×5) schedule
Method: (§3) The in vivo activity of SIQ-01 was studied. The maximum tolerated dose of SIQ-01 in mice is 30 mg/kg on a daily (×5) schedule. Combination treatment of SIQ-01 and cisplatin was active against the HCT116 colon carcinoma tumour when administered to tumour-bearing mice (15 mg SIC-01/kg administered by intraperitoneal injection on days 1-5 and 8-10; 4 mg cisplatin/kg administered subcutaneously on days 1 and 8), and gave a maximum T/C (Test/Control) of 49%. Treatment with cisplatin alone (same regimen) gave a maximum T/C (Test/Control) of 56%.

[6] = system: HT29 colon carcinoma; assay: Growth inhibitory assay (MTT, 72 hour exposure), HT29; format: cell-based; settings: Homo sapiens, HT 29, MTT
Method: as §1

[7] = system: HCT116 colon carcinoma tumour; assay: HCT116 colon carcinoma tumour in tumour-bearing mice; format: in vivo
Method: as §3

[8] = system: ACHN (renal); assay: NCI in vitro 60 cell panel, ACHN; format: cell-based; settings: Homo sapiens, read-out: Most Senstive Cells Lines mean log10 LC50 (converted)
Method: as §2

[9] = system: LOX IMVI (melanoma); assay: NCI in vitro 60 cell panel, LOX IMVI; format: cell-based; settings: Homo sapiens, read-out: Most Senstive Cells Lines mean log10 LC50 (converted)
Method: as §2

[10] = molecular target: T1, Thioredoxin/Thioredoxin Reductase (Tx/TR) (Homo sapiens, UniProt P10599); assay: Thioredoxin/thioredoxin reductase-catalysed reduction of insulin; format: biochemical; settings: 30 min at 37° C.
T1 construct: was purified from human placenta as previously described; made in house; host or cells: hTrx: Escherichia coli; TR: purified from human placenta tissue
T1 sequence (P10599 2-105 limits assumed): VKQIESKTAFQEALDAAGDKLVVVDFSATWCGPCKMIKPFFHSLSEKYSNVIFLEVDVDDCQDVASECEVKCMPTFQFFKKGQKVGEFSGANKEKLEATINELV
Method: Assays were performed using methods analogous to those described in Kirkpatrick et al., 1999 and Kunkel et al., 1997.
[…] (specific activity 43.6 μmol NADPH reduced/min/mg protein at 21° C.) was purified from human placenta as previously described (Oblong et al., 1993). Recombinant hTrx was expressed in Escherichia coli and purified as previously described (Gasdaska et al., 1994). The Trx and TR were stored at −20° C. with 5 mM dithiothreitol (DTT) which was removed before use with a desalting column (PDIO, Pharmacla, Uppsala, Sweden).
Microtitre plate colorimetric assays, based on the increase in absorbance at 405 nm which occurs as dithionitrobenzoic acid (DTNB) is reduced by the enzyme-mediated transfer of reducing equivalents from NADPH, were used to measure TR/Trx-dependent insulin-reduction and TR activity (see, e.g., Kunkel et al., 1997).
Thioredoxin reductase/thioredox […] insulin reducing activity was measured in an incubation with a final volume of 60 μL containing 100 mM HEPES buffer, pH 7.2, 5 mM EDTA (HE buffer), 1 mM NADPH, 1.0 μM thioredoxin reductase, 0.8 μM thioredoxin, and 2.5 mg/ml bovine insulin in flat-bottom 96-well microtitre plates. […] The reaction was stopped by the addition of 100 μL of 6 M guanidine HCl, 50 mM Tris, pH 8.0, and 10 mM DTNB, and the absorbance measured at 405 nm.

[11] = system: UO-31 (renal); assay: NCI in vitro 60 cell panel, UO-31; format: cell-based; settings: Homo sapiens, read-out: Most Senstive Cells Lines mean log10 LC50 (converted)
Method: as §2

[12] = system: U251 (CNS cancer); assay: NCI in vitro 60 cell panel, U251; format: cell-based; settings: Homo sapiens, U-251, read-out: Most Senstive Cells Lines mean log10 LC50 (converted)
Method: as §2

[13] = system: RXF 393 (renal); assay: NCI in vitro 60 cell panel, RXF 393; format: cell-based; settings: Homo sapiens, read-out: Most Senstive Cells Lines mean log10 LC50 (converted)
Method: as §2

[14] = in fetal calf serum; cited from earlier work
[15] = 60 cell, as in Table 3, read-out: Mean GI50
[16] = mean across 60 cell lines, 48 hour drug exposure
[17] = mean across 60 cell lines, 48 hour drug exposure, read-out: mean log10 GI50 (converted)

| Structure (SMILES) | IC50 [1] | CC50 [2] | GI50 [4, 15] | LC50 [4, 16] | GI50 [4, 17] | IC50 [6] | CC50 [9] | further results |
| --- | --- | --- | --- | --- | --- | --- | --- | --- |
| O=C1C=CC(O)(c2cc3ccccc3n2S(=O)(=O)c2ccccc2)C=C1 [SIQ-01, 4-(1-benzenesulfonyl-1H-indol-2-yl)-4-hydroxy-cyclohexa-2,5-dienone] | 86 nM | 33.1 nM | 152 nM | 2950 nM | 38.9 nM | 259 nM | – | CC50 [3]: 52.5 nM; MTD at 5 days [5]: 30 mg/kg; maximum T/C (Test/Control) ([7]; combination with cisplatin: 15 mg/kg i.p. days 1-5 and 8-10, 4 mg cisplatin/kg s.c. days 1 and 8): 49% |
| COc1ccc2c(c1)cc(C1(O)C=CC(=O)C=C1)n2S(=O)(=O)c1ccccc1 [SIQ-02, 4-(1-benzenesulfonyl-5-methoxy-1H-indol-2-yl)-4-hydroxy-cyclohexa-2,5-dienone] | – | – | – | 6170 nM | 135 nM | – | 468 nM | CC50 [8]: 447 nM |
| O=C1C=CC(O)(c2cc3cc(F)ccc3n2S(=O)(=O)c2ccccc2)C=C1 [SIQ-03, 4-(1-benzenesulfonyl-5-fluoro-1H-indol-2-yl)-4-hydroxy-cyclohexa-2,5-dienone] | 68 nM | 50.1 nM | 527 nM | 3240 nM | 66.1 nM | 347 nM | 63.1 nM | – |
| Cc1ccc(S(=O)(=O)n2c(C3(O)C=CC(=O)C=C3)cc3ccccc32)cc1 [SIQ-04] | 36 nM | 47.9 nM | < 100 nM | 7240 nM | 112 nM | 206 nM | 234 nM | IC50 [10]: < 100000 nM |
| COc1ccc(S(=O)(=O)n2c(C3(O)C=CC(=O)C=C3)cc3ccccc32)cc1 [SIQ-05] | 203 nM | 112 nM | – | 6310 nM | 162 nM | 420 nM | 380 nM | – |
| O=C1C=CC(O)(c2cc3ccccc3n2S(=O)(=O)c2ccc(F)cc2)C=C1 [SIQ-06, 4-[1-(4-fluoro-benzenesulfonyl)-1H-indol-2-yl]-4-hydroxy-cyclohexa-2,5-dienone] | – | 363 nM | – | 7760 nM | 234 nM | – | – | CC50 [11]: 631 nM |
| O=C1C=CC(O)(c2cc3ccccc3n2S(=O)(=O)c2ccc3ccccc3c2)C=C1 [SIQ-07] | 193 nM | 372 nM | – | 5620 nM | 191 nM | 274 nM | – | CC50 [12]: 513 nM |
| CC(C)c1cc(C(C)C)c(S(=O)(=O)n2c(C3(O)C=CC(=O)C=C3)cc3ccccc32)c(C(C)C)c1 [SIQ-09] | – | 550 nM | – | 11200 nM | 427 nM | – | – | CC50 [13]: 776 nM |
| O=C1C=CC(O)(c2cc3ccccc3n2S(=O)(=O)c2ccccc2)c2ccccc21 (stereo not drawn) [SIQ-10, 4-(1-benzenesulfonyl-1H-indol-2-yl)-4-hydroxy4H-naphthalen-1-one] | 205 nM | 794 nM | – | 7760 nM | 447 nM | 444 nM | 776 nM | – |
| Cc1ccc(S(=O)(=O)n2c(C3(O)C=CC(=O)c4ccccc43)cc3ccccc32)cc1 (stereo not drawn) [SIQ-11, 4-hydroxy 4-[1-(toluene-4-sulfonyl)-1H-indol-2-yl]-4H-naphthalen-1-one] | 155 nM | 490 nM | > 1000 nM | 5620 nM | 389 nM | 391 nM | 724 nM | – |
| N.N.[Cl][Pt][Cl] [cisplatin, reference compound] | – | – | – | – | – | – | – | maximum T/C (Test/Control) ([7]; cisplatin alone, 4 mg/kg s.c. days 1 and 8): 56% |
| O=CN/C=C/c1cc(O)ccc1O [erbstatin] | – | – | – | – | – | – | – | half-life [14]: < 30 min |

From patent US7307099B2, “4-(1-(sulfonyl)-1h-indol-2-yl)-4-(hydroxy)-cyclohexa-2,5-dienone compounds and analogs thereof as therapeutic agents” (Cancer Research Technology Limited, priority 2002, dated 2007)
